Measured values taken from patent US20170086736A1, “METHODS AND SYSTEMS USING NON-LABELED ANTIMETABOLITES AND ANALOGS THEREOF AS THERANOSTIC AGENTS” (The Johns Hopkins University, priority 2014, published 2017).

Columns and labels:
[1] = CEST MRI of drugs in PBS solution (in vitro phantom); assay type: physicochemical; conditions: for offset of CEST contrast corresponding to NH2 / offset of CEST contrast corresponding to OH: PBS solution, 20 mM, pH 7.4, 37° C., B1=3.6 μT, 3 s
Text: This would of course correspond only to an mM or μM change for the drug and would not be detectable on the large MRI signal of 55 M water molecules (110 M protons). However, for every saturated proton leaving from the solute to water, an intact proton relocates from water to the solute, a process so-called chemical or proton exchange, and subsequently gets saturated again, which will be transferred to the water again in the next exchange. If the exchange rate is fast enough, this continuous process can lead to great signal amplification of the NMR signal carried by the agent, even up to thousands of times (depending on the exchange rate). This can then cause a several percentage decrease in the water signal, allowing imaging of the low-concentration agent with the sensitivity of the water signal. The percentage of water signal decrease, or CEST contrast, is traditionally described by magnetization transfer ratio asymmetry (MTRasym) defined by MTRasym=(S^−Δω−S^+Δω)/S0, where […] are the MRI signal with RF irradiation at particular offsets +Δω and −Δω respectively, and So is that acquired without RF saturation (element (d) of FIG. 1). Because having detectable exchangeable protons (at an appropriate rate at an adequate concentration) is a requirement for generating CEST MRI signal, it thus opens the possibility to detect natural biocompatible molecules by their CEST signal, potentially improving the clinical translatability.
Elements (a)-(d) of FIG. 1 show an illustration of CEST contrast (taken from reference [^1] with permission). […] However, this process is repeated continuously, leading to effect amplification of magnitude depending on the exchange rate (ksw). The CEST contrast can be quantified by a NMR spectrum element (b), a z spectrum in element (c) of frequency dependence of normalized saturated water signal Ssat/S0, with S0 the non-saturated signal) or, an MTRasym plot in element (d). Elements (e)-(f) show CEST detection of drugs through their carried exchangeable protons on NH2 (blue) and OH (red) as exemplified by araC (left) and Gem (right) in PBS solution (20 mM, pH 7.4) at 37° C. using a standard CEST MRI method (RF pulse field strength (B1)=3.6 μT and duration =3 s). […] Elements (f)-(g) of FIG. 1 show the CEST contrast of them as quantified by z-spectra and MTRasym plots respectively, showing strong CEST contrast at ˜1 and ˜2 ppm corresponding to OH and NH2 respectively, which appear partially overlapped at pH 7.4 but can be resolved at low saturation power.
Other drugs, including prodrugs and drug modulators, as well as the drug carriers, are intended to be included within the general scope of this invention. Many of them have exchangeable protons such as OH, NH and NH2 (FIG. 1). Thus, in one embodiment, the water exchangeable proton corresponds to at least one of an OH, NH2 or NH group. The water-exchangeable proton can include at least one of an OH, NH2 or NH group. Other antitumor categories and the biochemical drug modulators (a non-toxic agent that can enhance the effect of drugs when used together, but has no effect when used alone) as listed in Table 1 are also intended to be within the scope of the current invention.

[2] = patients, repetitive infusions, single dose 3 g/m^2 over three hours, up to eight doses; cited from earlier work
[3] = single dose of 800 mg/kg (i.p.); cited from earlier work
[4] = in vivo; cited from earlier work

Row | SMILES | offset of CEST contrast corresponding to NH2 [1] | offset of CEST contrast corresponding to OH [1] | cerebellar toxicity [2] | accumulation of gemcitabine in tumor [3] | offset at which the maximum CEST signal could be detected ([1]; at low pH) | maximum tolerated dose (MTD) [4]
1 | Nc1ccn([C@@H]2O[C@H](CO)[C@@H](O)[C@@H]2O)c(=O)n1 [araC, Cytarabine] | ~2 ppm | ~1 ppm | no noticeable cerebellar toxicity |  |  | 
2 | Nc1ccn([C@@H]2O[C@H](CO)[C@@H](O)C2(F)F)c(=O)n1 [gemcitabine, Gemcitabine] | ~2 ppm | ~1 ppm |  | up to several mM | 3.2 ppm | 2200 m^g/m2
